Results from patent US10239887B2, “Positive allosteric modulators of the muscarinic acetylcholine receptor M4” (Vanderbilt University, priority 2016, dated 2019).
Where a name gives a salt, the structure may show the parent alone.

Target: T1, human mAChR M4 (Homo sapiens, UniProt P08173)
T1 sequence (P08173 1-479): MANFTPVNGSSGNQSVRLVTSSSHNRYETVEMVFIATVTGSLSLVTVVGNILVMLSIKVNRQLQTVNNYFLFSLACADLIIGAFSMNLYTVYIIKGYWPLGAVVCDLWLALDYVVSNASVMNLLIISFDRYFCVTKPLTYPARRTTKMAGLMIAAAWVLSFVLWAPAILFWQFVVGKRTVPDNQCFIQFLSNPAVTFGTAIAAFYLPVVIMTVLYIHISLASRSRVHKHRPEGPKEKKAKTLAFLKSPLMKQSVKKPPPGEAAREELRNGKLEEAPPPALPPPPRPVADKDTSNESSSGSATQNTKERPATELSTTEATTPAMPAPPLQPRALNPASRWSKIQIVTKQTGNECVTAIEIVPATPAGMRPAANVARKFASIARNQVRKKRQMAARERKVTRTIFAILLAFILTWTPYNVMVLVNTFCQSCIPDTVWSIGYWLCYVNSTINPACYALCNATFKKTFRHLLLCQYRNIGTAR
Assay: mAChR M4 cell-based functional assay (calcium flux), human M4
Conditions: Table 10; for EC50: Human M4 EC50 (nM), calcium flux, PAM activity with EC20 acetylcholine; for Emax / Emax (%): % ACh maximum at 30 μM

Row | SMILES | EC50 [nM] | Emax [%] | Emax (%)
1 | COc1nnc2sc3c(N4CCCC4)ncnc3c2c1C [Compound 281, 3-methoxy-4-methyl-8-pyrrolidin-1-yl-pyrimido [4′,5′:4,5]thieno[2,3-c] pyridazine] | 47.7 | 117 | 
2 | COc1nnc2sc3c(NC4CN(c5ncc(C(F)(F)F)cn5)C4)ncnc3c2c1C [Compound 282, 3-methoxy-4-methyl-N-[1-[5-(trifluoromethyl)pyrimidin-2-yl]azetidin-3-yl]pyrimido[4′,5′:4,5]thieno [2,3-c]pyridazin-8-amine] | 1140 | 90.9 | 
3 | CCNc1ncnc2c1oc1nc(C)c(Cl)c(C)c12 [Compound 287, 8-chloro-N-ethyl-7,9-dimethyl-pyrido[3′,2′:4,5]furo[3,2-d]pyrimidin-4-amine hydrochloride] | 1250 | 40.6 | 
4 | Cc1nc2oc3c(NCc4cccc(C(C)(C)O)c4)ncnc3c2c(C)c1Cl [Compound 288, 2-[3-[[(8-chloro-7,9-dimethyl-pyrido[3′,2′:4,5]furo[3,2-d]pyrimidin-4-yl)amino]methyl]phenyl]propan-2-ol] | 1880 | 54.4 | 
5 | Cc1cc(C)c2c(n1)oc1c(NC3CN(c4ncc(F)cn4)C3)ncnc12 [Compound 289, N-[1-(5-fluoropyrimidin-2-yl)azetidin-3-yl]-7,9-dimethyl-pyrido[3′,2′:4,5]furo[3,2-d]pyrimidin-4-amine hydrochloride] |  | 34.9 | 
6 | Cc1cc(C)c2c(n1)oc1c(NC3CN(c4cc(Cl)ncc4Cl)C3)ncnc12 [Compound 290, N-[1-(2,5-dichloro-4-pyridyl)azetidin-3-yl]-7,9-dimethyl-pyrido[3′,2′:4,5]furo[3,2-d]pyrimidin-4-amine dihydrochloride] | 1490 |  | 49.29
7 | Cc1cc(C)c2c(n1)oc1c(NCc3ccc(S(C)(=O)=O)cc3)ncnc12 [Compound 292, 7,9-dimethyl-N-[(4-methylsulfonylphenyl)methyl]pyrido[3′,2′:4,5]furo [3,2-d]pyrimidin-4-amine hydrochloride] | 1200 | 42.5 | 
8 | Cc1cc(C)c2c(n1)oc1c(NC3CCC3)ncnc12 [Compound 293, N-cyclobutyl-7,9-dimethyl-pyrido[3′,2′:4,5]furo[3,2-d]pyrimidin-4-amine hydrochloride] | 1590 |  | 44.18
9 | Cc1cc(C)c2c(n1)oc1c(NC3CC3c3ccc(F)c(F)c3)ncnc12 (centres unmarked) [Compound 294, N-[2-(3,4-difluorophenyl)cyclopropyl]-7,9-dimethyl-pyrido[3′,2′:4,5]furo [3,2-d]pyrimidin-4-amine hydrochloride] | 3380 | 56.3 | 
10 | Cc1cc(C)c2c(n1)oc1c(NC3CC3)ncnc12 [Compound 295, N-cyclopropyl-7,9-dimethyl-pyrido[3′,2′:4,5]furo[3,2-d]pyrimidin-4-amine hydrochloride] |  |  | 63.93
11 | Cc1cc(C)c2c(n1)oc1c(N3CC4(COC4)C3)ncnc12 [Compound 296, 7,9-dimethyl-4-(2-oxa-6-azaspiro[3.3]heptan-6-yl)pyrido[3′,2′:4,5]furo[3,2-d]pyrimidine] | 3370 | 37.7 | 
12 | Cc1nnc2oc3c(NC4CN(c5ccc(F)c(F)c5)C4)ncnc3c2c1C [Compound 297, N-[1-(3,4-difluorophenyl)azetidin-3-yl]-3,4-dimethyl-pyrimido[4′,5′:4,5]furo [2,3-c]pyridazin-8-amine] | 59.4 | 73 | 
13 | Cc1nnc2oc3c(NCc4ccc(C5(O)CCC5)cc4)ncnc3c2c1C [Compound 298, 1-[4-[[(3,4-dimethylpyrimido [4′,5′:4,5]furo[2,3-c]pyridazin-8-yl)amino]methyl]phenyl]cyclobutanol] | 862 | 58.2 | 
14 | Cc1nnc2oc3c(NCc4ccc(C(C)(C)O)cc4)ncnc3c2c1C [Compound 299, 2-[4-[[(3,4-dimethylpyrimido [4′,5′:4,5]furo[2,3-c]pyridazin-8-yl)amino]methyl]phenyl]propan-2-ol] | 2290 | 61.2 | 
